The text below walks through data of PubChem BioAssay AID463074 (Broad Institute, 2010).

Each structure is given as a SMILES string. The source made the active and inactive calls.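 How the source made its calls: active means AC50 no more than tenfold above the top dose tested, or full inhibition at every dose with a flat fit (cut at about 19 µM in these data); inconclusive means flat curve fit with inhibition between 30% and 70%, or poor fit; inactive means AC50 more than tenfold above the top dose tested.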

The test system of the assay is HMLE_sh_eGFP viability, CellTiter-Glo luminescence, 72 h. Briefly: viability loss of HMLE_sh_eGFP cells – cell-based, luminescence, counter-screen for HMLE_sh_ECad selective toxicity project, dose response (AID 463074;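 further: counterscreen control line to flag general toxicity for the HMLE_sh_ECad screen; potency for loss of viability as luminescence drops below DMSO wells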). (The purpose of a counterscreen is to sort out artefacts and off-target activity.)
Usually AC50 stands for the concentration at which the activity in the assay is half-maximal. Consider `COc1ccc(CNC(=O)c2c(N)n(CCCN3CCOCC3)c3nc4ccccc4nc23)cc1`, for which the AC50 was 6.67 µM. Under `CC(C)(C)C1CCC(CN2C(Nc3ccccc3)=NC[C@@H]2Cc2ccccc2)CC1` (some centres not stated) stands 6.54 µM; under `Cc1cc(Nc2cccc(Cl)c2)nc(NCc2ccccc2)n1`, 3.73 µM. Turning to `N=c1c2c(ncn1Cc1ccco1)Oc1c(ccc3ccccc13)C2c1ccccc1` (configuration not stated), the half-maximal activity concentration (AC50) is 3.92 µM. Under `Cc1c(NC(=O)c2ccc([N+](=O)[O-])o2)cccc1-c1nc2ncccc2o1` stands 6.52 µM; under `O=C(Cc1ccc(Cl)c(Cl)c1)Nc1ccc(SC(F)F)cc1`, 3.93 µM. Under `CCCCNc1c(-c2cccc(Sc3ccc(OC)cc3)c2)nc2ccccn12` stands 6.56 µM; under `CCn1cc(C(=O)N[C@H](C)c2ccccc2)c(=O)c2cc(F)c(N3CCN(C)CC3)cc21`, 3.5 µM. Under `CCc1ccc(-c2cc(C(=O)N3N=C(C(F)F)CC3(O)C(F)F)c3ccccc3n2)cc1` (configuration not stated) stands 6.4 µM; under `CCNS(=O)(=O)c1ccc(NC(=O)Nc2cccc(C(F)(F)F)c2)cc1`, 13.5 µM; under `C=C[C@@H]1c2cc(C)ccc2N(S(=O)(=O)c2ccc(C)cc2)[C@H](c2ccc(OC(C)=O)cc2)C1(C#N)C#N`, 1.3 µM. For the molecule `CCCCNC(=O)c1ccc(Cn2c(=S)[nH]c3c([nH]c4ccc(OC)cc43)c2=O)cc1`, the AC50 is 1.38 µM. Under `COc1cc(OC)cc(-c2sc3ccc(OC)cc3c2C#CC2(N)CCCCC2)c1` stands 3.23 µM. Next, `CCCC(O)(c1ccc(Cl)cc1)C(CN1CCOCC1)c1ccc(Cl)cc1` (configuration not stated): 9.47 µM; `CN(C)CCNC(=O)/C(=C/c1ccc(-c2ccc(Cl)cc2Cl)o1)NC(=O)c1ccccc1`: 4.78 µM; `COc1ccc(C(=O)/C=C2/C(=O)Nc3ccccc32)cc1`: 6.73 µM.

With `C/C(=N\NC(=S)Nc1ccc(F)cc1)c1ccc2c(c1)OCCO2`, the half-maximal activity concentration (AC50) was 2.36 µM. Turning to `COC(=O)c1c(NC(=O)c2ccc(C)c(S(=O)(=O)Nc3ccccc3C)c2)sc2c1CCCC2`, the AC50 was 1.31 µM.

Consider `C/C(=N\NC(=O)c1cc(C)nc2ccccc12)c1ccccn1`, for which the half-maximal activity concentration (AC50) was 13.1 µM. With `Cc1cccc(-c2cc3nc4c(c(NCc5ccco5)n3n2)CCCC4)c1`, the AC50 was 7.25 µM. Next, `NC(=O)CC(NC(=O)c1ccc(Br)cc1)c1ccc(N2CCCCCC2)c([N+](=O)[O-])c1` (configuration not stated): 19.6 µM. On to `O=S(=O)(Nc1ccc(-c2csc(-c3ccccc3)n2)cc1)c1ccccc1`, for which the AC50 was 5.92 µM. Turning to `CC(=O)Nc1ccc(NC(=O)c2nc(S(=O)(=O)Cc3cccc(C)c3)ncc2Cl)cc1`, the AC50 is 4.99 µM. `CCOc1ccccc1N(C(=O)Nc1ccc(Cl)cc1)C1=NCCS1`: the AC50 was > 19.5 µM (inactive). As to `O=C(CSc1nc(-c2ccccc2)cc(C(F)(F)F)n1)c1cccc([N+](=O)[O-])c1`, the half-maximal activity concentration (AC50) is 20.4 µM. Next, `COc1ccc(C(=O)NCC2(c3ccccc3)CCCC2)c(OC)c1`: 9.54 µM; `O=C1C=CC(=O)N1c1ccc(OC(F)F)cc1`: 11.9 µM; `CC(C)=CCC/C(C)=C/Cc1c(O)ccc(C(=O)/C=C/c2ccc(O)cc2)c1O`: 6.42 µM. Under `Cc1ccccc1-n1c(SCC(=O)N/N=C/C=C/c2ccccc2[N+](=O)[O-])nc2ccccc2c1=O` stands > 19.5 µM (inactive).

Take `C=C(C)[C@@H]1CC[C@]2(C(=O)O)CC[C@]3(C)C(CCC4[C@@]5(C)CC[C@H](O)C(C)(C)C5CC[C@]43C)C12` (some centres not stated): the AC50 was 5.71 µM.

Consider `CC(C)c1ccc(N2C(=O)NC(=O)/C(=C/C=C/c3ccco3)C2=O)cc1`, for which the concentration at half-maximal activity (AC50) is 2.29 µM. For the molecule `N#CCSc1nc2ccccc2c2nc3ccccc3n12`, the AC50 was 5.1 µM. With `c1ccc2c(-c3ccc(OCCN4CCCCC4)cc3)c(-c3ccsc3)sc2c1`, the half-maximal activity concentration (AC50) was 2.72 µM.

Turning to `CC1CCN(c2nc(-c3cccnc3)nc3scc(-c4ccccc4)c23)CC1`, the AC50 is 1.48 µM. On to `CCCOc1ccc(-c2nc(N3CCN(CC)CC3)c3ccccc3n2)cc1`, for which the AC50 was 6.44 µM. Next, `CCN(c1ccccc1)c1nc(C#N)nc(N(CC)c2ccccc2)n1`: 7.07 µM. Next, `Cn1nnnc1Sc1ncnc2scc(-c3ccc(C(F)(F)F)cc3)c12`: 3.03 µM; `Cc1ccc(NC(=O)c2nc(S(=O)(=O)Cc3ccccc3)ncc2Cl)cc1`: 6.39 µM; `COCCNc1cc(-c2ccccc2)nc2cc(-c3cccc(F)c3)nn12`: 13 µM. Regarding `Cc1ccc(NC2=C(Cl)C(=O)c3ccccc3C2=O)cc1`, the AC50 was 1.95 µM.

Regarding `CCCCCCCCNC(C)C(O)c1ccc(SC(C)C)cc1` (configuration not stated), the AC50 is 3.83 µM. With `COc1cccc(-c2sc3ccccc3c2-c2ccc(OCCN3CCCCC3)cc2)c1`, the AC50 is 1.41 µM. `CCNc1nc(Oc2c(Cl)cccc2Cl)cc(C(F)(F)F)n1`: the AC50 is 13.1 µM. Regarding `CC(C)(C)c1cc(C=C(C#N)C#N)cc(C(C)(C)C)c1O`, the concentration at half-maximal activity (AC50) is 3.08 µM. `c1ccc(NNC2=NCCCCC2)cc1`: the AC50 was 2.89 µM.

Take `O=C(O)c1ccc(Cl)c(S(=O)(=O)N(Cc2ccccc2)c2ccc(F)cc2)c1`: the AC50 was 14.5 µM. Next, `Cc1cc(=O)[nH]c(N/N=C/c2ccc(-c3ccc(F)cc3)o2)n1`: 18.1 µM; `CCCOc1c(OC)cccc1C1CC(=O)Nc2cc3c(cc21)OCCO3` (configuration not stated): 2.95 µM; `CN1C(=O)/C(=C/c2cccc(Cl)c2)Sc2ccc(C(=O)NCc3cccnc3)cc21`: 5.15 µM. Regarding `O=C1CC(=C(c2ccccc2)c2ccccc2)C(=O)N1CCCCN1CCN(c2cccc(Cl)c2)CC1`, the AC50 was 2.02 µM.

Regarding `COc1cc([C@@H]2c3cc4c(cc3[C@@H](O)[C@H]3COC(=O)[C@H]23)OCO4)cc(OC)c1O[Si](C)(C)C(C)(C)C`, the concentration at half-maximal activity (AC50) was 6.76 µM. Under `Cc1cc(C)cc(C(=O)Nc2nnc(SCC(=O)N3CCCc4ccccc43)s2)c1` stands > 19.5 µM (inactive); under `O=C(Nc1cccc(-c2csc(Nc3ccccc3)n2)c1)c1ccccc1`, 4.45 µM. Under `COC(=O)c1c(NC(=O)COc2ccc(Cl)cc2Cl)sc2c1CC(C)(C)NC2(C)C` stands 6.62 µM. Regarding `COc1cc2nc(CN3CC=C(c4ccccc4)CC3)[nH]c(=O)c2cc1OC`, the AC50 was 3.39 µM.

For `O=C(Nc1cccc(Cl)c1)Nc1sccc1-c1nc2ccccc2s1`, the AC50 was > 19.5 µM (inactive). Under `CCOC(=O)c1c(NC(=O)c2nn(CC)cc2Br)sc2c1CCCCC2` stands 1.95 µM; under `O=C(Cn1c2ccccc2c(=O)c2ccccc21)N/N=C/c1ccc(N2CCCC2)c([N+](=O)[O-])c1`, 2.43 µM; under `O=C(NC12CC3CC(CC(C3)C1)C2)c1ccc(-c2ccccc2Cl)o1`, 3.81 µM. Take `COc1ccc(C2c3c(ncn(Cc4ccco4)c3=N)Oc3ccc4ccccc4c32)cc1` (configuration not stated): the AC50 is 7.79 µM.

`CC(=O)O[C@H]1[C@@H](O)[C@H](O)[C@H](Oc2c(O)c(C)c3c4c2[C@@H](C)CC[C@@H]4[C@@H](C)C[C@H]3C=C(C)C)O[C@H]1C`: the half-maximal activity concentration (AC50) is 3.57 µM. Under `COc1ccc(Br)cc1C(=O)Nc1cccc(C)c1` stands > 19.5 µM (inactive). Under `CNc1ccccc1C(C)(C)c1cc(-c2cc(C)cc(C)c2)no1` stands 18.4 µM.

On to `CCOc1cc(S(=O)(=O)Nc2ccc(CC)cc2)ccc1Cl`, for which the AC50 was 7.02 µM.

In the case of `CN(Cc1ccco1)c1ncnc2ccc(-c3ccc4c(ccn4C)c3)cc12`, the AC50 was 3.01 µM. Under `Oc1cccc(-c2nc3c4c(ncn3n2)-c2ccccc2CC42CCCC2)c1` stands 1.5 µM; under `Clc1ccc(N/N=C/c2cccnc2)cc1`, 7.94 µM.

As for `Cc1cc2c(cc1C)C(c1ccccc1OC(C)C)CC(=O)N2` (configuration not stated), the AC50 is 1.54 µM.

On to `Cc1cc(-c2ccccc2)n(-c2cc(N/N=C/c3ccccc3O)ncn2)n1`, for which the concentration at half-maximal activity (AC50) was 0.669 µM. As for `O=S(=O)(c1ccc2ccccc2c1)N1CCN(c2ccc(O)cc2)CC1`, the AC50 was 8.59 µM. For `COc1ccc(CCC(C)NCC2CCCCC2)cc1` (configuration not stated), the AC50 is 1.66 µM. Take `C=CCn1c(SCc2c(C)noc2C)nc2sc3c(c2c1=O)CCCCC3`: the concentration at half-maximal activity (AC50) was 1.42 µM. Under `Cc1cc([N+](=O)[O-])ccc1-c1ccc(/C=N/NC(=O)c2ccc(Br)o2)o1` stands 3.49 µM; under `O=C(NCc1nc(-c2ccc(C(F)(F)F)cc2)no1)Nc1ccc(OC(F)(F)F)cc1`, 3.12 µM. As to `Cc1cc(/C=N/n2c(COc3ccccc3)nc3ccccc3c2=O)c(O)c([N+](=O)[O-])c1`, the AC50 is > 10 µM (inactive). For `Cc1ccc2c(c1)c1c(n2CC(O)CNC2CCCCC2)CCCC1` (configuration not stated), the AC50 is 8.31 µM. As to `Cc1ccccc1CSc1ccc(-c2ccc3c(c2)OCO3)nn1`, the half-maximal activity concentration (AC50) is 7.5 µM. Next, `Cc1ccc(S(=O)(=O)N2CCN(C(=O)COc3ccc(NC(=O)c4ccco4)cc3)CC2)cc1`: > 19.5 µM (inactive); `Cc1cc(NC(=O)/C=C/c2ccc(Cl)cc2)no1`: > 19.5 µM (inactive).

`COCC(C)NC(=O)NC1(C(F)(F)F)Oc2ccc(Cl)cc2O1` (configuration not stated): the concentration at half-maximal activity (AC50) is 18.3 µM. On to `Cc1cc2nc(NCCCO)n(CC(=O)c3cc(C(C)(C)C)c(O)c(C(C)(C)C)c3)c2cc1C`, for which the concentration at half-maximal activity (AC50) was 3.56 µM.

For `CCn1cc([N+](=O)[O-])c(C(=O)Nc2nc(-c3ccc(C)cc3)c(C)s2)n1`, the AC50 is 5.54 µM.

Turning to `COc1ccc(-c2cc(=O)n(-c3ccc([N+](=O)[O-])cc3)[nH]2)cc1`, the AC50 is 11.3 µM. `CCOc1ccc(C(=O)CCC(=O)N2CCN(c3ccc(O)cc3)CC2)cc1`: the concentration at half-maximal activity (AC50) was 2.49 µM. As for `O=C(Nc1ccc(F)cc1)c1nc(S(=O)(=O)Cc2ccccc2)ncc1Cl`, the AC50 is 7.15 µM. With `COc1ccc(-n2cc(-c3ccccc3)c3c(N4CCOCC4)ncnc32)cc1`, the AC50 was 6.91 µM. Under `COc1cc(N=Nc2ccc3ccccc3c2)ccc1O` stands 6.43 µM; under `Cc1csc(N/N=C/c2ccccn2)n1`, 11 µM; under `Nc1ccccc1N=Cc1c(O)n(CCC2=CCCCC2)c(=O)[nH]c1=O`, > 19.5 µM (inactive). For `COc1ccc2sc(-c3ccc(N(C)C)cc3)c(-c3ccc4cc[nH]c4c3)c2c1`, the concentration at half-maximal activity (AC50) was 16.5 µM. Under `COc1cccc(O)c1CN1CCC(C(=O)Nc2ccc(-c3cccc(C)c3)cc2)CC1` stands 4.06 µM; under `Cc1ccc(C)c(S(=O)(=O)N2CCN(c3ncnc4sccc34)CC2)c1`, 3.19 µM.
